Results: the NIST ThermoML archive (doi:10.1016/j.jct.2008.10.008)

Experiment: molar heat capacity at saturation pressure
Conditions: Crystal 2

CC(C)(C)c1ccc(C(C)(C)C)cc1 [1,4-bis(1,1-dimethylethyl)benzene]
Conditions | molar heat capacity [J/K/mol]
5 K | 0.22
5.533 K | 0.3
6.588 K | 0.58
7.503 K | 0.948
8.461 K | 1.45
9.448 K | 2.15
10 K | 2.66
10.47 K | 3.13
11.6 K | 4.28
12.86 K | 5.92
14.25 K | 7.97
15.79 K | 10.43
17.5 K | 13.43
19.42 K | 16.89
20 K | 17.93
21.58 K | 20.82
24 K | 25.18
26.71 K | 29.9
29.7 K | 34.78
30 K | 35.25
33.02 K | 39.81
36.72 K | 44.96
40 K | 49.12
40.81 K | 50.11
45.31 K | 55.45
50 K | 60.83
50.28 K | 61.18
53.35 K | 64.41
55.8 K | 67
58.24 K | 69.81
60 K | 71.59
63.85 K | 75.62
70 K | 82.39
70.16 K | 82.56
77.05 K | 90.04
80 K | 93.26
84.6 K | 98.29
87.33 K | 101.34
90 K | 104.26
92.81 K | 107.36
95.36 K | 110.2
100 K | 115.33
101.84 K | 117.33
104.42 K | 120.11
113.87 K | 130.45
120 K | 137.01
124.55 K | 141.81
136.29 K | 154.01
140 K | 157.79
148.14 K | 166.03
160 K | 177.95
160.18 K | 178.15
172.27 K | 190.18
180 K | 197.9
184.35 K | 202.24
196.47 K | 214.21
200 K | 217.74
208.62 K | 226.43
220 K | 238.04
220.76 K | 238.82
232.87 K | 251.39
240 K | 258.93
246.43 K | 265.79
